Experimental data reported in PubChem BioAssay (NCI).
Several values for one entry are separate records, joined by “and”; a condition that tells them apart may be missing. Identical values can stand only once.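 How tested: cells in 96-well plates exposed to compound for 48 hours at five concentrations. Abbreviation: GI50, concentration required for 50% inhibition of growth. Definition used: TGI = concentration required for complete inhibition of growth.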

Experiments:
Assay in all cases: NCI anticancer screen, dose series, 48 h
CCRF-CEM leukemia = system: CCRF-CEM leukemia
COLO 205 colon = system: COLO 205 colon
HCC-2998 colon = system: HCC-2998 colon
HT29 colon = system: HT29 colon
MDA-N = system: MDA-N
MOLT-4 leukemia = system: MOLT-4 leukemia
NCI-H522 lung = system: NCI-H522 lung
SK-MEL-5 melanoma = system: SK-MEL-5 melanoma
SK-OV-3 ovarian = system: SK-OV-3 ovarian
SN12C renal = system: SN12C renal

SMILES | TGI (CCRF-CEM leukemia) | TGI (COLO 205 colon) | TGI (HCC-2998 colon) | TGI (HT29 colon) | TGI (MDA-N) | TGI (MOLT-4 leukemia) | TGI (NCI-H522 lung) | TGI (SK-MEL-5 melanoma) | TGI (SK-OV-3 ovarian) | TGI (SN12C renal) | GI50 (HCC-2998 colon)
C[C@@H]1S[C@H](c2ccccc2F)N2Cc3ccccc3N=C12 | > 100 µM | > 100 µM | 40.9 µM | 86.6 µM | 48.4 µM | 46.7 µM | 51.6 µM | 32.5 µM | 85.1 µM | 42.2 µM | –
CCOC(CNCCC(=O)OC)OCC | > 10 µM | > 10 µM | > 10 µM | > 10 µM | > 10 µM | > 10 µM | > 10 µM | > 10 µM | > 10 µM | > 10 µM | –
COc1cc2c(cc1OC)[C@H]1CN3CCC[C@H]3C=C1c1ccc(OC)c(O)c1-2 | 0.0376 µM and 0.35 µM | 0.00119 µM | 0.0149 µM and 0.0736 µM | 0.0218 µM and 0.0484 µM | 0.112 µM | – | 0.000856 µM | 0.00133 µM | 0.000342 µM | – | –
CCc1c[n+]([O-])c(C)cc1[N+](=O)[O-] | > 100 µM | 29.6 µM | 40.5 µM | > 100 µM | > 100 µM | > 100 µM | > 100 µM | > 100 µM | > 100 µM | > 100 µM | –
COC(=O)CN1c2nc(C#N)c(C#N)nc2N(CC(=O)OC)c2nc(C#N)c(C#N)nc21 | > 24.3 µM | 15.3 µM | > 49.7 µM | 12.1 µM | > 100 µM | > 22 µM | 3.74 µM | > 53.8 µM | 35.2 µM | > 100 µM | –
COC(=O)CCc1cc(OC)c2c(c1)[C@H](C(=O)OC)[C@@H](c1ccc(O)c(OC)c1)O2 | > 100 µM | > 100 µM | 50.5 µM | > 100 µM | 44.6 µM | > 100 µM | > 100 µM | > 100 µM | > 100 µM | > 100 µM | –
CC(=O)Oc1cc(C(F)(F)F)ccc1C(=O)OC1(C)OC(=O)c2ccc(C(F)(F)F)cc2O1 (configuration not stated) | > 100 µM | > 100 µM | > 100 µM | > 100 µM | > 100 µM | > 100 µM | > 100 µM | – | > 100 µM | > 100 µM | –
CC(O)CCCOC(c1ccccc1)(c1ccccc1)c1ccccc1 (configuration not stated) | > 67.2 µM | 39.3 µM | 29.1 µM | 26.2 µM | 31.7 µM | > 50.9 µM | 26.8 µM | 16.6 µM | 30.8 µM | 30.6 µM | –
S=c1[nH]c2ccc(Br)cc2c(=S)s1 | > 100 µM | 32.2 µM | 63.7 µM | > 100 µM | 54 µM | > 100 µM | 77.7 µM | 37.8 µM | > 100 µM | 46.5 µM | –
CCCCn1cnc2c(c(CC#N)nn2-c2ccccc2)c1=N | > 100 µM | 92.8 µM | > 100 µM | > 100 µM | > 100 µM | > 100 µM | > 100 µM | 46.7 µM | > 100 µM | > 100 µM | –
Cc1ccc(OCCn2cc(Nc3ccccc3)c(=O)n(CCOc3ccc(C)cc3)c2=O)cc1 | > 100 µM | > 100 µM | > 100 µM | > 100 µM | > 100 µM | > 100 µM | > 100 µM | > 100 µM | – | > 100 µM | –
NNC1=N/C(=C\c2ccco2)C(Cl)=N1 | > 100 µM | > 100 µM | > 100 µM | > 100 µM | > 100 µM | 34.9 µM | 92.2 µM | > 100 µM | > 100 µM | > 100 µM | –
COC(C)(C)[C@@H](O)[C@H]1C[C@H](C)[C@@]2(CC[C@]3(C)[C@@H]2CC[C@@H]2[C@@]4(C)CC[C@@H](OC(C)=O)C(C)(C)[C@@H]4C[C@@H](OC4OC(COC(C)=O)C(O)C(O)C4O)[C@]23C)O1 (some centres not stated) | > 37 µM | 6.18 µM | 2.92 µM | 4.07 µM | 17.9 µM | 10.7 µM | 17.4 µM | 15.1 µM | 15.1 µM | 19.4 µM | –
O=C1NCC(NC(=O)C(F)(F)F)c2c(Br)sc(Br)c21 (configuration not stated) | > 100 µM | > 100 µM | > 100 µM | > 100 µM | > 100 µM | > 100 µM | > 100 µM | > 100 µM | > 100 µM | > 100 µM | –
CNc1ncnc2c1cnn2COCC(O)CO (configuration not stated) | > 100 µM | > 100 µM | > 100 µM | > 100 µM | > 100 µM | > 100 µM | > 100 µM | > 100 µM | > 100 µM | > 100 µM | –
Nc1ccc(-c2nc3ccccc3s2)cc1C(F)(F)F | 95 µM | 36.7 µM | 22.4 µM | 29.1 µM | 26.4 µM | 52.4 µM | 31.6 µM | 30.6 µM | 30.4 µM | 27.3 µM | 10.6 µM
O=C(O)C(SC1=NNC2(C(=O)N1)c1ccccc1-c1ccccc12)SC1=NNC2(C(=O)N1)c1ccccc1-c1ccccc12 | > 10 µM | > 10 µM | > 10 µM | > 10 µM | > 10 µM | > 10 µM | > 10 µM | > 10 µM | > 10 µM | > 10 µM | –
NCCCN1CCN(CCCNc2ccc3nnn4c5ccccc5c(=O)c2c34)CC1 | 35.7 µM | 19.4 µM | 29.4 µM | 50.3 µM | 31 µM | > 100 µM | 27.1 µM | 32.1 µM | > 100 µM | 30.7 µM | –
